In brackets after ≈: the same amount, converted by molar mass.
Tests used:
blood pressure = assay: anti-hypertensive activity in the renal hypertensive rat; type: in vivo; settings: 100 mg/kg, orally
Experimental: c. The anti-hypertensive activity of the compounds was determined in the renal hypertensive rat. Rats were made hypertensive by nephrectomy and treatment with deoxycorticosterone acetate/NaCl. The compounds were administered orally to a group of 3 hypertensive rats at a dose level of 100 mg/kg and their blood pressure was monitored after 4, 6 and 24 hours.

[1] = tested on: guinea pig platelet aggregation induced by ADP; assay: inhibition of guinea pig platelet aggregation induced in vitro by ADP; type: cell-based; settings: Cavia porcellus, ADP 5.45×10^-7 M, platelet rich plasma, 37° C.
Experimental: a. The compounds were examined for their ability to inhibit guinea pig platelet aggregation induced, in vitro, by 5.45×10^-7 M adenosine diphosphate (ADP).
The method consisted of diluting the compound immediately before use from a 10 mg/ml solution in ethanol to a 1 mg/ml solution with saline and then adding the appropriate volume to 0.5 ml of platelet rich plasma. The mixture was stirred at 37° C. for 1 minute before 25 μl of an ADP solution was added to give a final ADP concentration of 5.45×10^-7 M. The aggregation response was then recorded relative to the control.

[2] = tested on: total peripheral resistance; assay: total peripheral resistance, intravenous; type: in vivo, beagle dog; settings: dose range of 0.01-10 mg/kg, intra-venously
Experimental: (§1) b. The vasodilator activity of the compounds was determined in the femoral artery of the hind limb of the anaesthetised beagle dog. The method used was similar to that described by J. Nakano and J. R. McCurdy, (1967), J. Pharmac. Exp. Ther., 156, 538.
In other experiments the compounds were administered into the left femoral vein and the right femoral arterial pressure and cardiac output were monitored. From these experiments, total peripheral resistance (TPR) was calculated from the expression: [formula]

[3] = tested on: human platelet aggregation induced by collagen; assay: inhibition of human platelet aggregation induced in vitro by collagen; type: cell-based
Experimental: (§2) b. The compounds were examined for their ability to inhibit human platelet aggregation induced, in vitro, either by adenosine diphosphate (ADP) or collagen. The compounds were added in saline or dimethylformamide to platelet rich plasma at 37° C. to give a final concentration of 10^-4 M. After 3 minutes the platelets were challenged with ADP or collagen. The aggregation response was then recorded relative to the control.

[4] = tested on: femoral artery of the hind limb; assay: vasodilator activity in femoral artery of the hind limb (vascular resistance); type: in vivo, beagle dog; settings: dose range of 0.01-1 mg/kg, intra-arterially
Experimental: as §1
The compounds were administered into the iliac artery and the effects on both flow and pressure in the hind limb were recorded. Changes in vascular resistance (R) were calculated from the following expression: [formula]

[5] = tested on: gerbil colon; contraction to prostaglandin F2α; assay: prostaglandin antagonist activity on the isolated perfused gerbil colon (contraction to prostaglandin F2α); settings: Meriones unguiculatus; reduction of contraction to prostaglandin F2α; one minute pre-contact time
Experimental: The compounds were tested for prostaglandin-like and for prostaglandin antagonist activity on the isolated perfused gerbil colon preparation (smooth muscle). This has been shown by J. R. Weeks, J. R. Schultz and W. E. Brown, (1968), J. App. Physiol, 25, 783, to have greater precision and sensitivity than other preparations. A 15 mm portion of the descending colon is suspended in an organ bath and perfused with De Jalon's saline at 32° C. Compounds were given in a three minute cycle with a 45 second contact time and a 15 second washout time. Antagonist compounds were given with a one minute pre-contact time.
Antagonist activity was determined by measuring the percentage reduction of the contraction to two standard doses of prostaglandin F2α which gave responses between 20% and 80% of maximum response.

[6] = tested on: human platelet aggregation induced by adenosine diphosphate (ADP); assay: inhibition of human platelet aggregation induced in vitro by ADP; type: cell-based; settings: 10^-4 M, platelet rich plasma, 37° C.
Experimental: as §2

IC50 [1]: 44 µM | IC50 ([3]; Platelet, read-out: IC50 against collagen-induced aggregation): 2.8 µM | IC50 [5]: 3.4 µg/mL (≈ 8.55 µM)
Compound: CCCCCC(O)CCN1C(=O)CCC(=O)C1CCCCCCC(=O)OCC (stereo not drawn) [Compound 73, 2-(6'-Ethoxycarbonyl-n-hexyl)-1-(3"-hydroxy-n-octyl)-piperidin-3,6-dione]
fall in blood pressure after 4 hours (blood pressure; 4 hours): 16% | blood pressure after 6 hours (blood pressure; 6 hours): risen to normal hypertensive levels | total peripheral resistance (TPR) [2]: decreased total peripheral resistance | inhibition at 100 µM ([3]; 10^-4 M, collagen, platelet rich plasma, 37° C.): 100% | vascular resistance [4]: decreased vascular resistance | inhibition at 100 µM [6]: 87%

— patent US4299970A, “Oxy-alkylamino carboxylic esters” (Beecham Group Limited, priority 1974, dated 1981)
